Test results taken from PubChem BioAssay AID248 (DTP/NCI, 2004).
Values joined by “and” are separate entries in the source; they are usually repeats but may differ in a detail not shown here. Identical values can stand only once. Toxic doses and inconclusive results are not listed. Cut-off read from the data, not from the text of the source: active = T/C of 150% or more; inactive = T/C below 125%.

System: L1210 leukemia ip in BDF1 mice, survival T/C
Assay: NCI In Vivo Anticancer Drug Screen. Data for tumor model L1210 Leukemia (intraperitoneal) in B6D2F1 (BDF1) mice
Details: endpoint: mean survival time, higher = longer survival
How it was run: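 Tumor was transplanted into mice, which were then dosed with test compound or vehicle alone. Survival was recorded for each group, and the treated figure was expressed relative to the control figure.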

[1] = dose: 100.0 mg/kg/injection, schedule: Q01DX009 (ip), vehicle: Klucel (hydroxypropylcellulose) (HPC)
[2] = dose: 100.0 mg/kg/injection, schedule: Q04DX002 (ip), vehicle: Klucel (hydroxypropylcellulose) (HPC)
[3] = dose: 100.0 mg/kg/injection, schedule: Q04DX003 (ip), vehicle: Klucel (hydroxypropylcellulose) (HPC)
[4] = dose: 200.0 mg/kg/injection, schedule: Q01DX009 (ip), vehicle: Klucel (hydroxypropylcellulose) (HPC)
[5] = dose: 200.0 mg/kg/injection, schedule: Q04DX002 (ip), vehicle: Klucel (hydroxypropylcellulose) (HPC)
[6] = dose: 200.0 mg/kg/injection, schedule: Q04DX003 (ip), vehicle: Klucel (hydroxypropylcellulose) (HPC)
[7] = dose: 400.0 mg/kg/injection, schedule: Q01DX009 (ip), vehicle: Klucel (hydroxypropylcellulose) (HPC)
[8] = dose: 400.0 mg/kg/injection, schedule: Q04DX002 (ip), vehicle: Klucel (hydroxypropylcellulose) (HPC)
[9] = dose: 400.0 mg/kg/injection, schedule: Q04DX003 (ip), vehicle: Klucel (hydroxypropylcellulose) (HPC)
[10] = dose: 100.0 mg/kg/injection, schedule: Q01DX009 (ip), vehicle: other
[11] = dose: 100.0 mg/kg/injection, schedule: Q01DX009 (ip), vehicle: saline with Tween-80
[12] = dose: 200.0 mg/kg/injection, schedule: Q01DX009 (ip), vehicle: saline with Tween-80
[13] = dose: 50.0 mg/kg/injection, schedule: Q01DX009 (ip), vehicle: saline
[14] = dose: 100.0 mg/kg/injection, schedule: Q01DX009 (ip), vehicle: saline
[15] = dose: 100.0 mg/kg/injection, schedule: Q01DX001 (ip), vehicle: saline
[16] = dose: 200.0 mg/kg/injection, schedule: Q01DX001 (ip), vehicle: saline
[17] = dose: 400.0 mg/kg/injection, schedule: Q01DX001 (ip), vehicle: saline

Measured: T/C

N#C/C([S-])=C(/[S-])C#N.N#C/C([S-])=C(/[S-])C#N.[Co].c1ccc([P+](c2ccccc2)(c2ccccc2)c2ccccc2)cc1
inactive: dose: 75.0 mg/kg/injection, schedule: Q01DX009 (ip), vehicle: Klucel (hydroxypropylcellulose) (HPC) 121 % of control | dose: 75.0 mg/kg/injection, schedule: Q04DX003 (ip), vehicle: saline 100 % of control | dose: 150.0 mg/kg/injection, schedule: Q01DX009 (ip), vehicle: Klucel (hydroxypropylcellulose) (HPC) 110 % of control | dose: 150.0 mg/kg/injection, schedule: Q04DX003 (ip), vehicle: saline 110 % of control | dose: 300.0 mg/kg/injection, schedule: Q01DX009 (ip), vehicle: Klucel (hydroxypropylcellulose) (HPC) 103 % of control | dose: 300.0 mg/kg/injection, schedule: Q04DX003 (ip), vehicle: saline 98 % of control

O=[N+]([O-])c1cc([N+](=O)[O-])c(Cl)s1
inactive: dose: 12.5 mg/kg/injection, schedule: Q01DX009 (ip), vehicle: saline with Tween-80 97 % of control | dose: 25.0 mg/kg/injection, schedule: Q01DX009 (ip), vehicle: saline with Tween-80 91 % of control

Cc1ncc(C(=O)O)n1C(C)c1ccccc1 (centres undefined)
inactive: dose: 100.0 mg/kg/injection, schedule: Q01DX001 (ip), vehicle: Klucel (hydroxypropylcellulose) (HPC) 100 % of control | [1] 94 % of control and 104 % of control | [2] 94 % of control and 100 % of control and 102 % of control | [3] 93 % of control | dose: 200.0 mg/kg/injection, schedule: Q01DX001 (ip), vehicle: Klucel (hydroxypropylcellulose) (HPC) 109 % of control | [4] 100 % of control | [5] 94 % of control and 99 % of control and 100 % of control | [6] 95 % of control | dose: 400.0 mg/kg/injection, schedule: Q01DX001 (ip), vehicle: Klucel (hydroxypropylcellulose) (HPC) 96 % of control | [7] 97 % of control and 100 % of control | [8] 98 % of control and 103 % of control and 104 % of control | [9] 96 % of control

O=C(O)C1C(c2ccccc2)=C1c1ccc(Br)cc1 (centres undefined)
inactive: [1] 100 % of control | [3] 93 % of control | [4] 118 % of control | [6] 102 % of control | [7] 101 % of control | [9] 88 % of control

CC(=Nc1cc(C)ccc1C)c1c(O)cc(C)oc1=O
inactive: [1] 97 % of control | [4] 97 % of control | [7] 103 % of control

FC(F)(Cl)c1nc2nc(Cl)c(Cl)nc2[nH]1
inactive: dose: 50.0 mg/kg/injection, schedule: Q01DX009 (ip), vehicle: other 96 % of control | [10] 122 % of control | dose: 100.0 mg/kg/injection, schedule: Q04DX003 (ip), vehicle: other 114 % of control | dose: 200.0 mg/kg/injection, schedule: Q04DX003 (ip), vehicle: other 123 % of control | dose: 400.0 mg/kg/injection, schedule: Q04DX003 (ip), vehicle: other 96 % of control

Nc1ccccc1CC(C(=O)O)c1ccc2c(c1)OCO2 (centres undefined)
inactive: dose: 75.0 mg/kg/injection, schedule: Q01DX001 (ip), vehicle: saline 105 % of control | dose: 75.0 mg/kg/injection, schedule: Q01DX009 (ip), vehicle: acetone 108 % of control | dose: 150.0 mg/kg/injection, schedule: Q01DX001 (ip), vehicle: saline 94 % of control | dose: 150.0 mg/kg/injection, schedule: Q01DX009 (ip), vehicle: acetone 103 % of control | dose: 300.0 mg/kg/injection, schedule: Q01DX001 (ip), vehicle: saline 89 % of control | dose: 300.0 mg/kg/injection, schedule: Q01DX009 (ip), vehicle: acetone 103 % of control

COc1ccc(NC(=O)COc2ccc(C)cc2C)cc1
inactive: [2] 95 % of control | [5] 103 % of control | [8] 89 % of control

CSc1cc(C)c(O)c(C)c1
inactive: [10] 98 % of control | dose: 200.0 mg/kg/injection, schedule: Q01DX009 (ip), vehicle: other 101 % of control

CC(C)(O)C1CC1
inactive: dose: 100.0 mg/kg/injection, schedule: Q01DX005 (ip), vehicle: saline with Tween-80 97 % of control | [11] 88 % of control | dose: 100.0 mg/kg/injection, schedule: Q04DX002 (ip), vehicle: saline with Tween-80 101 % of control | dose: 200.0 mg/kg/injection, schedule: Q01DX005 (ip), vehicle: saline with Tween-80 94 % of control | [12] 94 % of control | dose: 200.0 mg/kg/injection, schedule: Q04DX002 (ip), vehicle: saline with Tween-80 108 % of control | dose: 400.0 mg/kg/injection, schedule: Q01DX005 (ip), vehicle: saline with Tween-80 101 % of control | dose: 400.0 mg/kg/injection, schedule: Q01DX009 (ip), vehicle: saline with Tween-80 91 % of control | dose: 400.0 mg/kg/injection, schedule: Q04DX002 (ip), vehicle: saline with Tween-80 96 % of control

NC(=O)C(c1ccccc1)N1CCCC1 (centres undefined)
inactive: dose: 25.0 mg/kg/injection, schedule: Q01DX009 (ip), vehicle: saline 91 % of control | dose: 25.0 mg/kg/injection, schedule: Q04DX003 (ip), vehicle: saline 98 % of control | [13] 94 % of control | dose: 50.0 mg/kg/injection, schedule: Q04DX003 (ip), vehicle: saline 97 % of control | [14] 91 % of control | dose: 100.0 mg/kg/injection, schedule: Q04DX003 (ip), vehicle: saline 95 % of control

Cc1ccc(CCS(=O)(=O)N=[N+]=[N-])cc1
inactive: [15] 101 % of control | [16] 97 % of control | [17] 101 % of control

CC(=O)Nc1cc(Cl)cc2c1-c1c(Cl)cc(Cl)cc1C2=O
inactive: [14] 98 % of control | [3] 94 % of control | [6] 94 % of control | [9] 91 % of control

O=C1C(C2(O)C(=O)Nc3ccccc32)CCCC1C1(O)C(=O)Nc2ccccc21 (centres undefined)
inactive: dose: 50.0 mg/kg/injection, schedule: Q01DX009 (ip), vehicle: Klucel (hydroxypropylcellulose) (HPC) 97 % of control | [1] 104 % of control | [4] 101 % of control

COc1ccc(NC(=O)OC/C=C/c2ccccc2)c(OC)c1
inactive: [1] 90 % of control | [4] 87 % of control

CC(O)C(c1ccccc1)c1ccccc1 (centres undefined)
inactive: dose: 50.0 mg/kg/injection, schedule: Q01DX009 (ip), vehicle: saline with Tween-80 94 % of control | [11] 102 % of control | [12] 97 % of control

C/C(=N\NC(N)=O)C1=C(O)C(C(C)C)NC1=O (centres undefined)
inactive: dose: 50.0 mg/kg/injection, schedule: Q01DX001 (ip), vehicle: carboxymethylcellulose (CMC) 101 % of control | dose: 100.0 mg/kg/injection, schedule: Q01DX001 (ip), vehicle: carboxymethylcellulose (CMC) 106 % of control | dose: 200.0 mg/kg/injection, schedule: Q01DX001 (ip), vehicle: carboxymethylcellulose (CMC) 103 % of control | dose: 400.0 mg/kg/injection, schedule: Q01DX001 (ip), vehicle: carboxymethylcellulose (CMC) 109 % of control

Cc1cccc2c1sc1c(C)cc(C(=O)CCC(=O)O)cc12
inactive: [15] 94 % of control | [16] 89 % of control | [17] 97 % of control

C/C=C(\C)C(N)=Nc1ccc(Cl)c(Cl)c1
inactive: dose: 55.0 mg/kg/injection, schedule: Q01DX Z (ip), vehicle: methylcellulose (MC) 106 % of control | dose: 83.0 mg/kg/injection, schedule: Q01DX Z (ip), vehicle: methylcellulose (MC) 102 % of control | dose: 125.0 mg/kg/injection, schedule: Q01DX Z (ip), vehicle: methylcellulose (MC) 102 % of control

CC1=CCCCC1Br (centres undefined)
inactive: dose: 100.0 mg/kg/injection, schedule: Q04DX003 (ip), vehicle: saline with Tween-80 96 % of control | dose: 200.0 mg/kg/injection, schedule: Q04DX003 (ip), vehicle: saline with Tween-80 101 % of control | dose: 400.0 mg/kg/injection, schedule: Q04DX003 (ip), vehicle: saline with Tween-80 98 % of control

CC(=O)CCN1CCCCC1
inactive: dose: 20.0 mg/kg/injection, schedule: Q04DX003 (ip), vehicle: saline 124 % of control

CC1(C)N=C(N)N=C(N)N1c1ccc(CCCCc2ccc(S(=O)(=O)F)cc2)cc1
inactive: [13] 113 % of control | [14] 106 % of control

CCOC(=O)C1C2CCC/C(=N\NS(=O)(=O)c3ccc(C)cc3)C21 (centres undefined)
inactive: [2] 104 % of control | [5] 100 % of control | [8] 96 % of control
